# Experimental data: US11666589B2, “Pivarubicin and benzarubicin compositions” (Paradox Pharmaceuticals, Inc., priority 2020, dated 2023)
# Where two headings read alike, the source gives them in different places.
# Legend:
# [1] = Cardiotoxicity assessment (Bertazzoli Test), non-tumor-bearing mice; type: in vivo, female NSG mice; conditions: for hearts with Severity 0 / hearts with Severity 0.5 / hearts with Severity 1.0 / hearts with Total Score 0 / hearts with Total Score 0.5 / hearts with Total Score 1.0: Non-Tumor-Bearing; for hearts with Severity 0 / hearts with Severity 0.5 / hearts with Severity 1.0: 3 i.p. doses at 2-week intervals; for hearts with Total Score 0 / hearts with Total Score 0.5 / hearts with Total Score 1.0: severity×extension
# Protocol: Drug-mediated cardiotoxicity was assessed in both non-tumor-bearing female NSG mice administered three doses (i.p. every two weeks) of the MTD of doxorubicin, pivarubicin or the equivalent volume of solvent only and in hearts excised from tumor-bearing mice treated as described in Results section. Body weights were monitored every three days. Two weeks after final dose, mice were sacrificed, and hearts were excised immediately. Intact ventricular myocardia were fixed for a minimum of 24 h in 10% formalin phosphate buffered to pH 7.0 and then carefully sectioned into 2 to 3-mm thick slices before being dehydrated in graded ethanol and cleared in xylene prior to embedding in paraffin at 58° C. Sections (4-μm thick) were mounted on glass slides, deparaffinized in xylene, and stained in the routine fashion with Mayer's hematoxylin and eosin. Slide labels were blinded to evaluator. Myocardial lesions were evaluated by routine light microscopy and scored with regard to the severity and extent of damage:
# Degree of severity (S)—0, no evidence of histological changes; 1, sarcoplasmic microvacuolization and/or inclusions (interstitial or cellular edema); 2, as in 1 plus sarcoplasmic macrovacuolization or atrophia, necrosis, fibrosis, endocardial lesions, and thrombi.
# Degree of extension (E)—0, no lesions; 0.5, less than 10 single altered myocytes on the whole-heart section; 1, scattered single altered myocytes; 2, scattered small groups of altered myocytes; 3, spread small groups of altered myocytes; 4, confluent groups of altered myocytes; 5, most of cells damaged.
# Total cardiotoxicity score/animal=S×E and mean total score (MTS) for each treatment group was MTS=(S×E)/number of animals.
# Given the limitation of doxorubicin in the treatment of tumors due to irreversible cardiotoxicity due to the total cumulative dose of drug, it was next determined whether pivarubicin produced evidence of cardiotoxic damage at the total dose of drug administered to NSG mice that produced tumor growth inhibition. Histological evidence of ventricular damage in hearts of drug- or vehicle-treated NSG mice were assessed using the Bertazzoli Test, originally designed to assess doxorubicin-induced cardiomyocyte damage. Analyses were performed on hearts from two independent experiments: 1) hearts that were excised at dosing endpoint from tumor-bearing NSG mice receiving 2 i.p. doses of pivarubicin at 16.5 mg/kg, doxorubicin at 1.4 mg/kg then 1.6 mg/kg and an equivalent volume of vehicle alone and 2) non-tumor-bearing female NSG mice receiving 3 i.p. doses of pivarubicin at 16.5 mg/kg, doxorubicin at 1.4 mg/kg then 1.6 mg/kg×2 and an equivalent volume of vehicle alone at 2-week intervals.
# Non-tumor-bearing female NSG mice at 9 weeks old were treated with either 16.5 mg/kg pivarubicin (PIV), 1.4 mg/kg (1×) and 1.6 mg/kg (2×) doxorubicin and equivalent volumes of vehicle i.p. at 2-week intervals. Tumor-bearing female NSG mouse treatment was as described for the “Cardiotoxicity Assessment method” method. At endpoint, hearts were excised and prepared for histological analysis as described above. Severity and severity×extension (total score) are defined in Materials and Methods.
# SUM159 cells = test: MTT cytotoxicity, TNBC monolayer SUM159; type: cell-based; conditions: SUM159, 48 h
# Protocol: Based upon the ability of pivarubicin to circumvent multiple mechanisms of resistance against doxorubicin, we then examined the efficacy of pivarubicin against TNBC in comparison to doxorubicin, using the following procedure, using two basal TNBC cell lines. MDA-MB-231 cells and SUM-159 cells were maintained under adherent monolayer growth conditions. Upon reaching 50% confluency, cells were treated for 48 h with the dose range of doxorubicin or pivarubicin as indicated in FIGS. 6A and 6B. Cell viability was corrected for death observed in vehicle-only-treated cells (<1% ethanol final well concentration).
# [2] = Maximum tolerated dose in non-tumor-bearing mice; type: in vivo, female NSG mice
# Protocol: The MTD for pivarubicin was 26.6 mg/kg, producing a reversible mean 20% weight loss after two doses, with a third dose producing an irreversible mean weight loss >20%.
# CEM/VLB-10 = test: Drug resistance of P-glycoprotein overexpressing CEM/VLB-10 cells; type: cell-based, human; conditions: CEM/VLB-10 versus CCRF-CEM
# Protocol: Pivarubicin used for TNBC studies was synthesized by Dr. John Rimoldi (Univ. of Mississippi) using the previously described protocol. Doxorubicin HCl, rottlerin and all antibodies were purchased from Sigma-Aldrich (St. Louis, Mo.). For in vitro experiments, doxorubicin and pivarubicin were dissolved in DMSO. The final maximum DMSO concentration used for in vitro drug treatments (1% for 72 hours) was not cytotoxic. IL-3-dependent 32D.3 murine myeloid cells, CCRF-CEM human lymphoblastic leukemia cells and multidrug-resistant variants (generous gift of Dr. William T. Beck, St. Jude Children's Research Hospital, Memphis, Tenn.), 293 embryonic human kidney cells and HL-60 human acute myeloid leukemia cells transfected with Bcr-Abl, Bcl-XL or empty expression vectors (generous gift of Dr. Kapil Bhalla, Univ. of Miami) were maintained as previously described. K562 human chronic myelogenous leukemia and LNCaP human prostate cancer cells were purchased from ATCC (Manassas, Va.) and maintained as described by the vendor. LNCaP/Bcl-2 cells were the generous gift of Dr. Ralph Buttyan (Columbia Univ.). Luminescent MDA-MB-231-LM2 (LM-2; metastatic lung subpopulation isolated from human TNBC MDA-MB-231 cells transduced with eIF1a-Luc2-puro lentivirus) were generously provided by Dr. Yibin Kang, Princeton Univ.) and maintained in culture as previously described. […]
# MDA-MB-231 cells = test: Secondary tumorsphere formation; type: cell-based, human; conditions: 2.5 μM, up to 7 days
# Protocol: either vehicle, pivarubicin (NV), or doxorubicin (DOX), and cultured for up to 7 days prior to obtaining the digital images shown in FIG. 6C (vehicle only), FIG. 6D (2.5 uM PIV), and FIG. 6E (2.5 uM DOX). The bar graph in FIG. 6F represents the mean number of tumorspheres greater than […] in diameter/well (n>3).
compound,measurement,setting,value
"COc1cccc2c1C(=O)c1c(O)c3c(c(O)c1C2=O)C[C@@](O)(C(=O)CO)C[C@@H]3O[C@H]1C[C@H](N)[C@H](O)[C@H](C)O1 [Doxorubicin, reference compound]",hearts with Severity 0,[1],5/9
same,hearts with Severity 0.5,[1],0/9
same,hearts with Severity 1.0,[1],4/9
same,hearts with Total Score 0,[1],7/9
same,hearts with Total Score 0.5,[1],2/9
same,hearts with Total Score 1.0,[1],0/9
same,IC50,SUM159 cells,4000 nM
same,IC90,SUM159 cells,> 20000 nM
same,reversible mean weight loss,[2]; 1.4 mg/kg after 3 prior escalating doses,22%
same,irreversible mean weight loss,"[2]; 1.8 mg/kg, independent dosing experiment",> 25%
same,MTD,[2]; i.p. once every 2 weeks,1.4 mg/kg
same,resistance,CEM/VLB-10,12 fold
same,inhibition of secondary tumorsphere formation,MDA-MB-231 cells,partial inhibition
"COc1cccc2c1C(=O)c1c(O)c3c(c(O)c1C2=O)C[C@@](O)(C(=O)COC(=O)C(C)(C)C)C[C@@H]3O[C@H]1C[C@H](NCc2ccccc2)[C@H](O)[C@H](C)O1 [Pivarubicin, N-Benzyladriamycin-14-pivalate]",hearts with Severity 0,[1],9/9
same,hearts with Severity 0.5,[1],0/9
same,hearts with Severity 1.0,[1],0/9
same,hearts with Total Score 0,[1],9/9
same,hearts with Total Score 0.5,[1],0/9
same,hearts with Total Score 1.0,[1],0/9
same,histologic damage to ventricular cardiomyocytes,"[1]; non-tumor-bearing mice (n=9), cumulative tumor growth inhibitory dose",no evidence of histologic damage
same,IC50,"SUM159 cells; MTT, read-out: IC50",1500 nM
same,IC90,"SUM159 cells; MTT, read-out: IC90",1700 nM
same,reversible mean weight loss,"[2]; 26.6 mg/kg, after two doses",20%
same,irreversible mean weight loss,"[2]; 26.6 mg/kg, third dose",> 20%
same,resistance,CEM/VLB-10,no resistance
same,inhibition of secondary tumorsphere formation,MDA-MB-231 cells,complete inhibition
